The record followed here is paper PMC12115217, “3,3′-((3-Hydroxyphenyl)azanediyl)dipropionic Acid Derivatives as a Promising Scaffold Against Drug-Resistant Pathogens and Chemotherapy-Resistant Cancer” (Pathogens, 2025).

In brackets after ≈: the same amount, converted by molar mass. Like-named read-outs stand apart in the source and are kept apart here.

For one series, the system named is E. faecalis AR-0671. Put plainly: Broth microdilution MIC, E. faecalis AR-0671. The class given is cell-based, Enterococcus faecalis. Conditions: for MIC: Enterococcus faecalis. The text has this:
(§1) The multidrug-resistant S. aureus strain TCH 1516 [USA 300-HOU-MR] was obtained from the American Type Culture Collection (ATCC, Manassas, VA, USA) (Table 1). E. faecalis AR-0671, multidrug-resistant E. coli AR-0001, K. pneumoniae AR-0003, P. aeruginosa AR-1114, and A. baumannii AR-0273 strains were acquired from the Centers for Disease Control and Prevention (CDC) AR isolate bank (Table 1). Prior to the initiation of this study, all microbial strains were stored in commercial cryopreservation systems at a temperature of −80 °C. The strains were cultivated on Columbia sheep blood agar (Becton Dickinson, Franklin Lakes, NJ, USA) or potato dextrose agar (PDA) for Candida (Becton Dickinson, Franklin Lakes, NJ, USA).
(§2) The antimicrobial activity of 3-((3-hydroxyphenyl)amino)propanoic acid derivatives was assessed by using the broth microdilution method, following the guidelines outlined by the Clinical Laboratory Standards Institute (CLSI), with modifications. In brief, the compounds were dissolved in dimethyl sulfoxide (DMSO) to attain a final concentration of 25–30 mg/mL. Vancomycin hydrochloride (MedChem express, Cat. No. HY-17362), cefazolin (MedChem express, Cat. No. HY-B1892), and meropenem (MedChem express, Cat. No. HY-13678) were used as control antimicrobial drugs and were dissolved in DMSO as described before. Dilution series were prepared in deep 96-well microplates to achieve a two-fold concentration range of 0.25, 0.5, 1, 2, 4, 8, 16, 32, and 64 µg/mL, utilizing cation-adjusted Mueller–Hinton broth (CAMHB) as the growth medium. The microplates containing the dilution series were then inoculated with fresh cultures of each tested organism to reach a final concentration of 5 × 10^4 CFU (colony-forming units) of the test organism in media containing 1% DMSO and 1× drug concentration, with a volume of 200 µL per well. Wells that were inoculated with medium containing 1% DMSO served as positive controls. Subsequently, the microplates were incubated at 35 ± 1 °C for 18 ± 2 h. Following the incubation period, the plates were examined by using a manual microplate viewer (Sensititre Manual Viewbox, ThermoFisher Scientific, Waltham, MA, USA). […] All experiments were conducted in duplicate with three technical replicates for each condition.

For series [1], the system named is E. coli AR-0001. The series can be described thus: Broth microdilution MIC, E. coli AR-0001. The class given is cell-based, Escherichia coli. Conditions: for minimal inhibitory concentration (MIC) E. coli AR-0001: multidrug-resistant, KPC-3, CAMHB.
Excerpt: as §1, §2

In series [2] the test system is K. pneumoniae AR-0003. The series can be described thus: Broth microdilution MIC, K. pneumoniae AR-0003. Conditions: for minimal inhibitory concentration (MIC) K. pneumoniae AR-0003: KPC-3, CAMHB. The class given is cell-based, Klebsiella pneumoniae.
Excerpt: as §1, §2

The test system of series [3] is P. aeruginosa AR-1114. The series can be described thus: Broth microdilution MIC, P. aeruginosa AR-1114. The class given is cell-based, Pseudomonas aeruginosa. The following applies: for minimal inhibitory concentration (MIC) P. aeruginosa AR-1114: IMP-15, CAMHB.
Excerpt: as §1, §2

The next series concerns A. baumannii AR-0273. The series can be described thus: Broth microdilution MIC, A. baumannii AR-0273. The following applies: for MIC: Acinetobacter baumannii. The class given is cell-based, Acinetobacter baumannii.
Excerpt: as §1, §2

In the next series the test system is FaDu cells. Put plainly: MTT cell viability at fixed 100 µM, FaDu cells. The class given is cell-based. The following applies: 24 h, described in words (Figure 2). How it is done:
Test compounds 2–25 were dissolved in hybridoma-grade dimethyl sulfoxide (Millipore, Sigma, Burlington, MA, USA) to prepare stock solutions at concentrations of 10–25 mg/mL. […] For in vitro anticancer activity screening, the compounds were thawed at room temperature, protected from light, and the aliquots were diluted in complete cell culture media to achieve a final concentration of 100 µM and used for the in vitro assays. The cytotoxicity assays were performed in triplicate.
FaDu cells were obtained from the American Type Culture Collection (Rockville, MD, USA). HEK293 cells were kindly provided by Dr. Iliev lab at the Jill Roberts Institute for Inflammatory Bowel Disease, Weill Cornel Medicine of Cornel University (New York, NY, USA). All cells were cultivated in Dulbecco’s Modified Eagle Medium/Nutrient Mixture F-12 (DMEM/F-12) (Gibco, Waltham, MA, USA), 10% fetal bovine serum (FBS) (Gibco, Waltham, MA, USA), 100 U/mL penicillin, and 100 μg/mL streptomycin (P/S) (Gibco, Waltham, MA, USA). Culturing conditions were maintained at 37 °C in a humidified atmosphere containing 5% CO2. The culture medium was refreshed every 2–3 days, and cells were passaged upon reaching 70–80% confluence.
The in vitro inhibitory effects of the compounds were assessed by using the MTT assay. Briefly, cells were plated in 96-well plates at a density of 1 × 10⁴ cells per well. After the cells were allowed to adhere overnight at 37 °C in 5% CO₂, they were treated with compounds at a concentration of 100 µM in triplicate. Following a 20 h incubation, the MTT reagent was added, and the cells were further incubated for 4 h. The resulting formazan was solubilized in anhydrous DMSO, and absorbance was measured at 570 nm by using a microplate reader. Cell viability was calculated by using the following formula: ([AE − AB]/[AC − AB]) × 100%, where AE, AC, and AB represent the absorbance values of experimental samples, untreated controls, and blank wells, respectively. Data analysis was performed by using GraphPad Prism or QuickCalcs.

For series [4], the system named is S. aureus TCH 1516. The series can be described thus: Broth microdilution MIC, S. aureus TCH 1516. The class given is cell-based. The following applies: Staphylococcus aureus.
The test system of series [5] is E. coli AR-0001. The series can be described thus: Broth microdilution MIC, E. coli AR-0001. The class given is cell-based. Conditions: Escherichia coli, AR0001; multidrug-resistant, KPC-3; CAMHB, 18 ± 2 h; read-out: minimal inhibitory concentration (MIC) E. coli AR-0001.
For series [6], the system named is K. pneumoniae AR-0003. Put plainly: Broth microdilution MIC, K. pneumoniae AR-0003. The class given is cell-based. Conditions: Klebsiella pneumoniae, AR0003; KPC-3; CAMHB, 18 ± 2 h; read-out: minimal inhibitory concentration (MIC) K. pneumoniae AR-0003.
Series [7] concerns P. aeruginosa AR-1114. Put plainly: Broth microdilution MIC, P. aeruginosa AR-1114. The class given is cell-based. Conditions: Pseudomonas aeruginosa, AR1114; IMP-15; CAMHB, 18 ± 2 h; read-out: minimal inhibitory concentration (MIC) P. aeruginosa AR-1114.
In series [8] the test system is S. aureus TCH 1516. Put plainly: Broth microdilution MIC, S. aureus TCH 1516. Conditions: mecA MRSA isolate, USA300 lineage; CAMHB, 18 ± 2 h. The class given is cell-based, Staphylococcus aureus.
Excerpt: as §1, §2

Setting [9] is: AR0671, CAMHB, 18 ± 2 h, read-out: minimal inhibitory concentration (MIC) E. faecalis AR-0671.
Setting [10] is: AR0273, OXA-23, CAMHB, 18 ± 2 h, read-out: minimal inhibitory concentration (MIC) A. baumannii AR-0273.
The mark [11] stands for this setting: MRSA / USA300, mecA MRSA isolate, USA300 lineage, CAMHB, 18 ±, read-out: minimal inhibitory concentration (MIC) S. aureus TCH 1516.

As to `NNC(=O)CCN(CCC(=O)NN)c1cccc(O)c1` [Compound 4, 3,3′-((3-Hydroxyphenyl)azanediyl)di(propanehydrazide)], the “minimal inhibitory concentration (MIC) E. faecalis AR-0671” value in the series on E. faecalis AR-0671 (CAMHB) was greater than 64 µg/mL. For the same molecule, the MIC in the series on E. faecalis AR-0671 (setting [9]) is greater than 64 µg/mL; in the series on A. baumannii AR-0273 (setting [10]), greater than 64 µg/mL; in the series with S. aureus TCH 1516 [4] (setting [11]), 8 µg/mL (≈ 28.4 µM); in the series on E. coli AR-0001 [5], greater than 64 µg/mL; in the series on K. pneumoniae AR-0003 [6], greater than 64 µg/mL; in the series on P. aeruginosa AR-1114 [7], greater than 64 µg/mL. Also, the “minimal inhibitory concentration (MIC) E. coli AR-0001” value in the series on E. coli AR-0001 [1] was greater than 64 µg/mL. For the same molecule, the “minimal inhibitory concentration (MIC) K. pneumoniae AR-0003” value with K. pneumoniae AR-0003 [2] is greater than 64 µg/mL. Besides, the “minimal inhibitory concentration (MIC) P. aeruginosa AR-1114” value with P. aeruginosa AR-1114 [3] was greater than 64 µg/mL. Besides, the “minimal inhibitory concentration (MIC) A. baumannii AR-0273” value in the series on A. baumannii AR-0273 (OXA-23, CAMHB) is greater than 64 µg/mL. In the series on FaDu cells, the “post-treatment viability (MTT assay)” value was “moderate decrease in viability”.

Consider `O=C(O)CCN1CCC(=O)c2ccc(O)cc21` [Compound 7, 3-(7-Hydroxy-4-oxo-3,4-dihydroquinolin-1(2H)-yl)propanoic Acid], for which the “minimal inhibitory concentration (MIC) S. aureus TCH 1516” value in the series on S. aureus TCH 1516 [8] is greater than 64 µg/mL. Further, the “minimal inhibitory concentration (MIC) E. faecalis AR-0671” value in the series with E. faecalis AR-0671 (CAMHB) was greater than 64 µg/mL. Besides, the MIC with E. faecalis AR-0671 (setting [9]), in the series on A. baumannii AR-0273 (setting [10]), in the series on S. aureus TCH 1516 [4] (setting [11]), with E. coli AR-0001 [5], in the series on K. pneumoniae AR-0003 [6] and with P. aeruginosa AR-1114 [7] was greater than 64 µg/mL throughout. In addition, the “minimal inhibitory concentration (MIC) E. coli AR-0001” value in the series on E. coli AR-0001 [1] was greater than 64 µg/mL. Besides, in the series on K. pneumoniae AR-0003 [2], the “minimal inhibitory concentration (MIC) K. pneumoniae AR-0003” value is greater than 64 µg/mL. In the series on P. aeruginosa AR-1114 [3], the “minimal inhibitory concentration (MIC) P. aeruginosa AR-1114” value is greater than 64 µg/mL. In addition, the “minimal inhibitory concentration (MIC) A. baumannii AR-0273” value with A. baumannii AR-0273 (OXA-23, CAMHB) was greater than 64 µg/mL.

Regarding `O=C(CCN(CCC(=O)NN=Cc1ccccc1)c1cccc(O)c1)NN=Cc1ccccc1` [Compound 8, 3,3′-((3-Hydroxyphenyl)azanediyl)bis(N′-(benzylidene)propanehydrazide)], the “minimal inhibitory concentration (MIC) S. aureus TCH 1516” value in the series on S. aureus TCH 1516 [8] is greater than 64 µg/mL. Moreover, the “minimal inhibitory concentration (MIC) E. faecalis AR-0671” value with E. faecalis AR-0671 (CAMHB) is greater than 64 µg/mL. In addition, the MIC in the series on E. faecalis AR-0671 (setting [9]), in the series with A. baumannii AR-0273 (setting [10]), in the series on S. aureus TCH 1516 [4] (setting [11]), with E. coli AR-0001 [5], in the series on K. pneumoniae AR-0003 [6] and in the series on P. aeruginosa AR-1114 [7] was greater than 64 µg/mL throughout. Besides, in the series with E. coli AR-0001 [1], the “minimal inhibitory concentration (MIC) E. coli AR-0001” value is greater than 64 µg/mL. In addition, in the series on K. pneumoniae AR-0003 [2], the “minimal inhibitory concentration (MIC) K. pneumoniae AR-0003” value is greater than 64 µg/mL. Further, the “minimal inhibitory concentration (MIC) P. aeruginosa AR-1114” value with P. aeruginosa AR-1114 [3] is greater than 64 µg/mL. Moreover, the “minimal inhibitory concentration (MIC) A. baumannii AR-0273” value with A. baumannii AR-0273 (OXA-23, CAMHB) is greater than 64 µg/mL.

For the molecule `O=C(CCN(CCC(=O)NN=Cc1ccc([N+](=O)[O-])cc1)c1cccc(O)c1)NN=Cc1ccc([N+](=O)[O-])cc1` [Compound 10, 3,3′-((3-Hydroxyphenyl)azanediyl)bis(N′-(4-nitrobenzylidene)propanehydrazide)], the MIC was 16 µg/mL (≈ 29.2 µM) with E. faecalis AR-0671 (AR0671, read-out: minimal inhibitory concentration (MIC) E. faecalis AR-0671); greater than 64 µg/mL in the series with E. coli AR-0001 [1] (Escherichia coli, AR0001, read-out: minimal inhibitory concentration (MIC) E. coli AR-0001); greater than 64 µg/mL with K. pneumoniae AR-0003 [2] (Klebsiella pneumoniae, AR0003, read-out: minimal inhibitory concentration (MIC) K. pneumoniae AR-0003); greater than 64 µg/mL in the series with P. aeruginosa AR-1114 [3] (Pseudomonas aeruginosa, AR1114, read-out: minimal inhibitory concentration (MIC) P. aeruginosa AR-1114); greater than 64 µg/mL with A. baumannii AR-0273 (AR0273, read-out: minimal inhibitory concentration (MIC) A. baumannii AR-0273); 4 µg/mL (≈ 7.31 µM) in the series on S. aureus TCH 1516 [4] (MRSA / USA300, read-out: minimal inhibitory concentration (MIC) S. aureus TCH 1516).
